{"source": "patent US9101785B2", "about": "“Use of 2,3-dihydroxypropyl dodecanoate for treating seborrhoea” (PIERRE FABRE DERMO-COSMETIQUE, priority 2009, dated 2015)", "test_system": "5-α reductase enzyme", "test": "Inhibition of 5-α reductase activity: conversion of [4-14C]testosterone to DHT by normal human dermal fibroblasts (NHDF)", "type": "cell-based"}
{"smiles": "CCCCCCCCCCCC(=O)OCC(O)CO", "note": "(stereo not drawn) [2,3-dihydroxypropyl dodecanoate]", "values": [{"measurement": "5-α reductase enzyme activity (reduced to)", "setting": "75 μM test compound, 24 h pre-incubation then 24 h with radiolabelled testosterone, DHT quantified by TLC/phosphorImager", "value": 66, "unit": "%"}, {"measurement": "inhibition of 5-α reductase activity (in words)", "setting": "dose-effect observed, FIG. 1", "value": "inhibition of 5-α reductase activity is also observed"}]}
{"smiles": "CC(C)(C)NC(=O)[C@H]1CC[C@H]2[C@@H]3CC[C@H]4NC(=O)C=C[C@]4(C)[C@H]3CC[C@]12C", "note": "[finasteride, reference compound]", "values": [{"measurement": "testosterone metabolisation to DHT / 5-α reductase activity (in words)", "setting": "positive control tested at 10 μM", "value": "lowers testosterone metabolisation to DHT significantly"}]}
